Legend:
[1] = target: T1, Human immunodeficiency virus type 1 protease (Human immunodeficiency virus 1, UniProt Q72874); assay: Inhibitory activity against HIV-1 protease
[2] = target: T1, Human immunodeficiency virus type 1 protease; assay: Compound was evaluated for its inhibitory activity in recombinant HIV-l protease
MT2 = assay: Compound was evaluated for its inhibitory activity against HIV-1-IIIB infected MT2 cells (human T lymphoid cells); format: functional, cell-based
[3] = target: T1, Human immunodeficiency virus type 1 protease; assay: Compound was evaluated for its binding affinity against HIV-1 protease using [125I]-SPA (scintillation proximity assay)
[4] = target: T1, Human immunodeficiency virus type 1 protease; assay: Compound was evaluated for its inhibitory activity against recombinant HIV-1 protease using [125I]-SPA (scintillation proximity assay)

`COC(=O)[C@@H](NC(=O)[C@@H](NC(=O)[C@@H](CC(=O)C[C@@H](Cc1ccccc1)C(=O)N[C@H](C(=O)N[C@H](C(=O)OC)C(C)C)C(C)C)Cc1ccccc1)C(C)C)C(C)C` showed an IC50 [1] greater than 10000 nM.
Molecule `CC[C@H](C)[C@H](NC(=O)[C@H](Cc1ccccc1)CC(O)C[C@@H](Cc1ccccc1)C(=O)N[C@H](C(=O)NCC1CCc2ccccc2N1)[C@@H](C)CC)C(=O)NCC1CCc2ccccc2N1` (stereo not given in full) has an IC50 [2] of 1200 nM and an IC50 (MT2) of 7500 nM.
Molecule `CCCC[C@H](CC(O)C[C@@H](CCCC)C(=O)N[C@H](C(=O)N[C@H](C(=O)OC)C(C)C)C(C)C)C(=O)N[C@H](C(=O)N[C@H](C(=O)OC)C(C)C)C(C)C` has an IC50 [1] of 5 nM.
`COC(=O)[C@H](Cc1ccccc1)NC(=O)[C@@H](NC(=O)[C@H](Cc1ccccc1)CC(O)C[C@@H](Cc1ccccc1)C(=O)N[C@H](C(=O)N[C@@H](Cc1ccccc1)C(=O)OC)C(C)C)C(C)C` was tested, and the IC50 (MT2) was 2400 nM and the IC50 [1] was 10 nM.
`CC[C@H](C)[C@H](NC(=O)[C@H](Cc1ccccc1)CC(O)C[C@@H](Cc1ccccc1)C(=O)N[C@H](C(=O)NCCN1CCOCC1)[C@@H](C)CC)C(=O)NCCN1CCOCC1` showed an IC50 [2] of 850 nM and an IC50 (MT2) greater than 10000 nM.
For `CC[C@H](C)[C@H](NC(=O)[C@H](Cc1ccccc1)CC(O)C[C@@H](Cc1ccccc1)C(=O)N[C@H](C(=O)NCc1ccccn1)[C@@H](C)CC)C(=O)NCc1ccccn1`, the IC50 [2] was 450 nM and the IC50 (MT2) was 500 nM.
Work on `CCCC[C@H](CC(O)C[C@@H](CCCC)C(=O)N[C@@H](C)C(=O)N[C@@H](C)C(=O)OC)C(=O)N[C@@H](C)C(=O)N[C@@H](C)C(=O)OC` yielded an IC50 [1] of 75 nM.
With `CCCC[C@H](CC1(C[C@@H](CCCC)C(=O)N[C@@H](CC(C)C)C(=O)N[C@@H](Cc2ccccc2)C(=O)OC)CO1)C(=O)N[C@@H](CC(C)C)C(=O)N[C@@H](Cc1ccccc1)C(=O)OC` the IC50 [1] was 400 nM.
`COC(=O)[C@@H](NC(=O)[C@@H](NC(=O)[C@H](Cc1ccccc1)CC(O)C[C@@H](Cc1ccccc1)C(=O)N[C@H](C(=O)N[C@H](C(=O)OC)C(C)C)C(C)C)C(C)C)C(C)C` was tested, and the IC50 (MT2) was 1600 nM and the IC50 [1] was 5 nM.
`CCCC[C@H](CC(O)C[C@@H](CCCC)C(=O)N[C@@H](CC(C)C)C(=O)N[C@@H](Cc1ccccc1)C(=O)OC)C(=O)N[C@@H](CC(C)C)C(=O)N[C@@H](Cc1ccccc1)C(=O)OC` showed an IC50 [1] of 90 nM.
Molecule `CC[C@H](C)[C@H](NC(=O)[C@H](Cc1ccccc1)CC(O)C[C@@H](Cc1ccccc1)C(=O)N[C@H](C(=O)NCc1nc2ccccc2[nH]1)[C@@H](C)CC)C(=O)NCc1nc2ccccc2[nH]1` has a Ki [3] of 3.5 nM, an IC50 (MT2) of 400 nM and an IC50 [1] of 3 nM. The IC50 [4] was 40 µM.
Work on `CCCC[C@H](CC(O)(CO)C[C@@H](CCCC)C(=O)N[C@@H](CC(C)C)C(=O)N[C@@H](Cc1ccccc1)C(=O)OC)C(=O)N[C@@H](CC(C)C)C(=O)N[C@@H](Cc1ccccc1)C(=O)OC` yielded an IC50 [1] of 2000 nM.
With `CC(C)CNC(=O)[C@H](Cc1ccccc1)CC(O)C[C@@H](Cc1ccccc1)C(=O)NCC(C)C` the IC50 [1] was greater than 1000 nM.
For `COC(=O)[C@H](Cc1ccccc1)NC(=O)[C@H](CC(C)C)NC(=O)[C@H](Cc1ccccc1)CC(O)C[C@@H](Cc1ccccc1)C(=O)N[C@@H](CC(C)C)C(=O)N[C@@H](Cc1ccccc1)C(=O)OC`, the IC50 (MT2) was 2300 nM and the IC50 [1] was 30 nM.
Molecule `CC(C)[C@H](NC(=O)[C@H](Cc1ccccc1)CC(O)C[C@@H](Cc1ccccc1)C(=O)N[C@H](C(=O)NCc1nc2ccccc2[nH]1)C(C)C)C(=O)NCc1nc2ccccc2[nH]1` has an IC50 (MT2) of 2100 nM and an IC50 [1] of 10 nM.
